Experiments:
TDP-43 protein = biological target: T1, TDP-43 protein (Homo sapiens, UniProt Q13148); test: TDP-43 aggregation inhibition in TDP-43-BiFC cell model (Forskolin-induced); format: cell-based; conditions: for inhibition at 3 µM: read-out: TDP-43 protein aggregation inhibitory effect: Aggregation inhibitory effect (%) (@3 uM)
T1 construct: BiFC fluorescent-protein fragments (two complementary halves); expressed in transfected cells
How it was run: (§1)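 Forskolin (30 µM) co-treated with compound (screen 3 and 10 µM; dose-response 0.003–10 µM) for 48 h. BiFC fluorescence normalised to Forskolin-only (100% aggregation) minus untreated; viability from Hoechst-stained nuclei count vs Forskolin-only. IC50 by nonlinear regression.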

[1] = Liver microsomal stability, human; format: in vitro ADME; conditions: 1 µM compound; 0.5 mg/mL microsomes; NADPH; 30 minutes at 37°C
Description: Liver microsomal stability by the compounds prepared according to Examples 1 to 46 was confirmed. Specifically, four types of liver microsomes (human, dog, rat, and mouse each at 0.5 mg/mL), 0.1 M phosphate buffer solution (pH 7.4), and the compounds at 1 µM concentration were added and pre-incubated at 37°C for 5 minutes, and then NADPH generation system solution was added and incubated at 37°C for an additional 30 minutes. Thereafter, an acetonitrile solution containing an internal standard (chloropropamide) was added to terminate the reaction, and after centrifugation for 5 minutes (14,000 rpm, 4°C), the supernatant was injected into an LC-MS/MS system to analyze the substrate drug, thereby evaluating the metabolic stability of 8 compounds.
The amount of remaining substrate through the reaction was analyzed using a Shimadzu Nexera XR system and TSQ vantage (Thermo). A Kinetex XB-C18 (2.1 × 100 mm, 2.6 µm, particle size; Phenomenex, USA) was used as the HPLC column, and (A) distilled water containing 0.1% formic acid and (B) acetonitrile containing 0.1% formic acid were used as mobile phases. Analyst software (version 1.6.3) and Xcalibur (version 1.6.1) were used for data analysis. The calculated results are shown in Table 5 below: Liver microsomal stability data of novel compounds from […] (human, rat, and mouse).

CYP2C9 = biological target: T2, CYP2C9 (Homo sapiens, UniProt P11712); test: CYP isoenzyme activity inhibition in human liver microsomes, CYP2C9; format: in vitro ADME; conditions: 10 µM compound; human liver microsomes 0.25 mg/mL; relative to control without compound
T2 construct: human liver microsomes (0.25 mg/mL); from tissue; host or cells: human liver microsomes
T2 sequence (P11712 whole entry): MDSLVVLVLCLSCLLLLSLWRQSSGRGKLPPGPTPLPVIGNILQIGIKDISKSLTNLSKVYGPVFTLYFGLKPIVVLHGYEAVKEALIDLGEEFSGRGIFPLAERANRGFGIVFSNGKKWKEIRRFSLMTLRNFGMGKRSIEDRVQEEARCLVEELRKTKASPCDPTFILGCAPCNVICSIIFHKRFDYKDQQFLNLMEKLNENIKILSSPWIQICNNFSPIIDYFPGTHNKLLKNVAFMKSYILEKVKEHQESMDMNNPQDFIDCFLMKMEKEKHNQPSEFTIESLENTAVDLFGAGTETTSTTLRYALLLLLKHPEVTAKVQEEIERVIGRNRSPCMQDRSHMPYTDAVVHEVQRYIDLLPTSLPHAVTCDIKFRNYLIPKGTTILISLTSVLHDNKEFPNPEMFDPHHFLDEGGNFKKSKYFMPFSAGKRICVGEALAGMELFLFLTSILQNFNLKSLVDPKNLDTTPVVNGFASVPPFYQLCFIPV
Description: The CYP isoenzyme activity inhibitory effect by the compounds prepared according to Examples 1 to 46 was confirmed. Specifically, human liver microsomes (0.25 mg/mL), 0.1 M phosphate buffer solution (pH 7.4), a substrate drug cocktail of five drug metabolizing enzymes (Phenacetin 50 µM, Diclofenac 10 µM, S-mephenytoin 100 µM, Dextromethorphan 5 µM, and Midazolam 2.5 µM), and the compounds were added at concentrations of 0 or 10 µM, respectively, and pre-incubated at 37°C for 5 minutes, and then NADPH generation system solution was added and incubated at 37°C for an additional 15 minutes. Thereafter, an acetonitrile solution containing an internal standard (Terfenadine) was added to terminate the reaction, and after centrifugation for 5 minutes (14,000 rpm, 4°C), the supernatant was injected into an LC-MS/MS system to simultaneously analyze the metabolites of the substrate drugs, thereby evaluating the drug metabolizing enzyme inhibitory activity.
The metabolites of each CYP isoenzyme marker drug generated through the reaction were analyzed using a Shimadzu Nexera XR system and TSQ vantage (Thermo). A Kinetex C18 (2.1 × 100 mm, 2.6 µm, particle size; Phenomenex, USA) was used as the HPLC column, and (A) distilled water containing 0.1% formic acid and (B) acetonitrile containing 0.1% formic acid were used as mobile phases, and a gradient program as shown in Table 6 below was applied.
The generated metabolites were quantified using MRM (Multiple Reaction Monitoring) quantitative mode, and Xcalibur (version 1.6.1) was used for data analysis. To show the CYP isoenzyme activity inhibitory effect of the novel compounds prepared according to the Examples of the disclosure, the % activity of CYP isoenzymes relative to the control group without compound addition is shown in Table 6 below. Additionally, to confirm the difference in effect according to substituents, Comparative Compounds 1 and 5, which are two compounds that share a similar parent nucleus structure with Compounds 1 to 46 of the disclosure while Cy is substituted with aromatic heteroaryl instead of saturated heterocyclyl, were selected as comparative compounds and their activities are shown together.

TDP-43 BiFC cells = test: Cell viability (stained nuclei count) in TDP-43-BiFC cells; format: cell-based; conditions: Forskolin-only group = 100%
How it was run: as §1

T1 sequence (Q13148 whole entry, the tested form may be a part): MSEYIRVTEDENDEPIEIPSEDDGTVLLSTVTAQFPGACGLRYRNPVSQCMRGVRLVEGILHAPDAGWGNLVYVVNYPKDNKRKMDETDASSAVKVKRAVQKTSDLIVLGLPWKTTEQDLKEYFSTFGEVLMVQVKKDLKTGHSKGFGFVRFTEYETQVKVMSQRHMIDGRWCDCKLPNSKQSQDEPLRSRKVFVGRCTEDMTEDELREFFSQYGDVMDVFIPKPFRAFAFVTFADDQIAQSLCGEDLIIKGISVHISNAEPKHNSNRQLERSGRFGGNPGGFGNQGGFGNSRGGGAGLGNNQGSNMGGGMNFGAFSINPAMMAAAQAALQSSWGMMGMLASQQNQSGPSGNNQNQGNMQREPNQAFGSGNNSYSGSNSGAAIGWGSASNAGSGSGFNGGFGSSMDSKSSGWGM

CC(=O)N1CCN(c2nc3ccc(NN=C(C#N)C#N)cc3s2)CC1 [Compound 30, (2-(4-acetylpiperazin-1-yl)benzo[d]thiazol-6-yl)carbonohydrazonoyl dicyanide]
IC50 (TDP-43 protein): 146 nM
inhibition at 3 µM (TDP-43 protein): 88%
Human microsomes (% remaining) [1]: > 100 % remaining
CYP2C9 (% activity) (CYP2C9): 86.2 % activity
Cell viability (%) (@ 3 uM) (TDP-43 BiFC cells): 83.1%

CC(C)N1CCN(c2nc3ccc(NN=C(C#N)C#N)cc3o2)CC1 [Compound 28, (2-(4-isopropylpiperazin-1-yl)benzo[d]oxazol-6-yl)carbonohydrazonoyl dicyanide]
inhibition at 3 µM (TDP-43 protein): 57.1%
Human microsomes (% remaining) [1]: 11.7 % remaining
CYP2C9 (% activity) (CYP2C9): 48.5 % activity
Cell viability (%) (@ 3 uM) (TDP-43 BiFC cells): 113.4%

CC1CN(c2nc3ccc(NN=C(C#N)C#N)cc3o2)CC(C)O1 (stereo not shown) [Compound 18, (2-(2,6-dimethylmorpholino)benzo[d]oxazol-6-yl)carbonohydrazonoyl dicyanide]
inhibition at 3 µM (TDP-43 protein): 98.6%
Human microsomes (% remaining) [1]: 95.8 % remaining
CYP2C9 (% activity) (CYP2C9): > 100 % activity
Cell viability (%) (@ 3 uM) (TDP-43 BiFC cells): 102.1%

CC1CN(c2nc3ccc(NN=C(C#N)C#N)cc3s2)CC(C)O1 (stereo not shown) [Compound 10, (2-(2,6-dimethylmorpholino)benzo[d]thiazol-6-yl)carbonohydrazonoyl dicyanide]
inhibition at 3 µM (TDP-43 protein): 100%
Human microsomes (% remaining) [1]: 69.4 % remaining
CYP2C9 (% activity) (CYP2C9): 76.8 % activity
Cell viability (%) (@ 3 uM) (TDP-43 BiFC cells): 83.8%

CC1CN(c2nc3ccc(NN=C(C#N)C#N)cc3s2)CCO1 (stereo not shown) [Compound 12, (2-(2-methylmorpholino)benzo[d]thiazol-6-yl)carbonohydrazonoyl dicyanide]
inhibition at 3 µM (TDP-43 protein): 100%
Human microsomes (% remaining) [1]: 62.7 % remaining
CYP2C9 (% activity) (CYP2C9): 65.1 % activity
Cell viability (%) (@ 3 uM) (TDP-43 BiFC cells): 73.0%

CCn1c(N2CCOCC2)nc2cc(NN=C(C#N)C#N)ccc21 [Compound 33, (1-ethyl-2-morpholino-1H-benzo[d]imidazol-5-yl)carbonohydrazonoyl dicyanide]
IC50 (TDP-43 protein): 124 nM
inhibition at 3 µM (TDP-43 protein): 93.9%
Human microsomes (% remaining) [1]: 94.9 % remaining
CYP2C9 (% activity) (CYP2C9): 28.8 % activity
Cell viability (%) (@ 3 uM) (TDP-43 BiFC cells): 55.0%

CCn1c(N2CCOCC2)nc2ccc(NN=C(C#N)C#N)cc21 [Compound 32, (1-ethyl-2-morpholino-1H-benzo[d]imidazol-6-yl)carbonohydrazonoyl dicyanide]
IC50 (TDP-43 protein): 99 nM
inhibition at 3 µM (TDP-43 protein): 95.4%
Human microsomes (% remaining) [1]: 95.5 % remaining
CYP2C9 (% activity) (CYP2C9): 65.1 % activity
Cell viability (%) (@ 3 uM) (TDP-43 BiFC cells): 59.7%

N#CC(C#N)=NNc1ccc2nc(N3CC4CCC(C3)O4)sc2c1 [Compound 23, (2-(8-oxa-3-azabicyclo[3.2.1]octan-3-yl)benzo[d]thiazol-6-yl)carbonohydrazonoyl dicyanide]
IC50 (TDP-43 protein): 107 nM
inhibition at 3 µM (TDP-43 protein): 99.2%
Human microsomes (% remaining) [1]: 85.6 % remaining
CYP2C9 (% activity) (CYP2C9): 68.5 % activity
Cell viability (%) (@ 3 uM) (TDP-43 BiFC cells): 81.1%

N#CC(C#N)=NNc1ccc2nc(N3CCOCC3)sc2c1 [Compound 2, (2-morpholinobenzo[d]thiazol-6-yl)carbonohydrazonoyl dicyanide]
inhibition at 3 µM (TDP-43 protein): 100%
Human microsomes (% remaining) [1]: 74.3 % remaining
CYP2C9 (% activity) (CYP2C9): 95.1 % activity
Cell viability (%) (@ 3 uM) (TDP-43 BiFC cells): 87.5%

CC1CN(c2nc3ccc(NN=C(C#N)C#N)cc3o2)CCO1 (stereo not shown) [Compound 15, (2-(2-methylmorpholino)benzo[d]oxazol-6-yl)carbonohydrazonoyl dicyanide]
inhibition at 3 µM (TDP-43 protein): 97.5%
Human microsomes (% remaining) [1]: > 100 % remaining
CYP2C9 (% activity) (CYP2C9): 88.6 % activity
Cell viability (%) (@ 3 uM) (TDP-43 BiFC cells): 105.2%

N#CC(C#N)=NNc1ccc2nc(N3CC4CCC(C3)O4)oc2c1 [Compound 26, (2-(8-oxa-3-azabicyclo[3.2.1]octan-3-yl)benzo[d]oxazol-6-yl)carbonohydrazonoyl dicyanide]
IC50 (TDP-43 protein): 248 nM
inhibition at 3 µM (TDP-43 protein): 94.8%
Human microsomes (% remaining) [1]: 96.3 % remaining
CYP2C9 (% activity) (CYP2C9): 53.3 % activity
Cell viability (%) (@ 3 uM) (TDP-43 BiFC cells): 76.1%

COC1CCN(c2nc3ccc(NN=C(C#N)C#N)cc3o2)CC1 [Compound 17, (2-(4-methoxypiperidin-1-yl)benzo[d]oxazol-6-yl)carbonohydrazonoyl dicyanide]
inhibition at 3 µM (TDP-43 protein): 100%
Human microsomes (% remaining) [1]: 16.7 % remaining
CYP2C9 (% activity) (CYP2C9): 73.8 % activity
Cell viability (%) (@ 3 uM) (TDP-43 BiFC cells): 96.9%

COC1CCN(c2nc3ccc(NN=C(C#N)C#N)cc3s2)CC1 [Compound 9, (2-(4-methoxypiperidin-1-yl)benzo[d]thiazol-6-yl)carbonohydrazonoyl dicyanide]
inhibition at 3 µM (TDP-43 protein): 100%
Human microsomes (% remaining) [1]: 5.0 % remaining
CYP2C9 (% activity) (CYP2C9): 60.7 % activity
Cell viability (%) (@ 3 uM) (TDP-43 BiFC cells): 76.2%

N#CC(C#N)=NNc1ccc2nc(NC(=O)N3CC4CCC(C3)O4)sc2c1 [Compound 40, (2-(8-oxa-3-azabicyclo[3.2.1]octane-3-carboxamido)benzo[d]thiazol-6-yl)carbonohydrazonoyl dicyanide]
inhibition at 3 µM (TDP-43 protein): 67.7%
Human microsomes (% remaining) [1]: 94.2 % remaining
CYP2C9 (% activity) (CYP2C9): 46.9 % activity
Cell viability (%) (@ 3 uM) (TDP-43 BiFC cells): 95.6%

N#CC(C#N)=NNc1ccc2nc(N3C4CCC3COC4)sc2c1 [Compound 11, (2-(3-oxa-8-azabicyclo[3.2.1]octan-8-yl)benzo[d]thiazol-6-yl)carbonohydrazonoyl dicyanide]
inhibition at 3 µM (TDP-43 protein): 100%
Human microsomes (% remaining) [1]: 81.3 % remaining
CYP2C9 (% activity) (CYP2C9): 70.2 % activity
Cell viability (%) (@ 3 uM) (TDP-43 BiFC cells): 80.9%

Cn1c(N2CCOCC2)nc2ccc(NN=C(C#N)C#N)cc21 [Compound 5, (1-methyl-2-morpholino-1H-benzo[d]imidazol-6-yl)carbonohydrazonoyl dicyanide]
inhibition at 3 µM (TDP-43 protein): 94.7%
Human microsomes (% remaining) [1]: 77.8 % remaining
CYP2C9 (% activity) (CYP2C9): 98 % activity
Cell viability (%) (@ 3 uM) (TDP-43 BiFC cells): 109.2%

CC1CN(C(=O)Nc2nc3ccc(NN=C(C#N)C#N)cc3s2)CC(C)O1 (stereo not shown) [Compound 39, (2-(2,6-dimethylmorpholine-4-carboxamido)benzo[d]thiazol-6-yl)carbonohydrazonoyl dicyanide]
inhibition at 3 µM (TDP-43 protein): 58.7%
Human microsomes (% remaining) [1]: 83.8 % remaining
CYP2C9 (% activity) (CYP2C9): 42.9 % activity
Cell viability (%) (@ 3 uM) (TDP-43 BiFC cells): 117.7%
